Patent US20100076003A1, “5-OXAZOLIDIN-2-ONE SUBSTITUTED 1,3,8-TRIAZASPIRO[4.5]DECAN-4-ONE DERIVATIVES USEFUL AS ORL-1 RECEPTOR MODULATORS” (priority 2008, published 2010)

Columns and labels:
[1] = target: Kappa (κ) opioid receptor (Homo sapiens, UniProt P41145); assay: Filtration binding assay, kappa opioid receptor, U-69,593-3H ligand
[2] = target: Delta (δ) opioid receptor (Homo sapiens, UniProt P41143); assay: Filtration binding assay, delta opioid receptor, DPDPE-3H ligand
Mu (μ) opioid receptor = Mu (μ) opioid receptor (Homo sapiens, UniProt P35372); assay: Filtration binding assay, mu opioid receptor, DAMGO-3H ligand
Mu (μ) opioid receptor, sequence (P35372 whole entry): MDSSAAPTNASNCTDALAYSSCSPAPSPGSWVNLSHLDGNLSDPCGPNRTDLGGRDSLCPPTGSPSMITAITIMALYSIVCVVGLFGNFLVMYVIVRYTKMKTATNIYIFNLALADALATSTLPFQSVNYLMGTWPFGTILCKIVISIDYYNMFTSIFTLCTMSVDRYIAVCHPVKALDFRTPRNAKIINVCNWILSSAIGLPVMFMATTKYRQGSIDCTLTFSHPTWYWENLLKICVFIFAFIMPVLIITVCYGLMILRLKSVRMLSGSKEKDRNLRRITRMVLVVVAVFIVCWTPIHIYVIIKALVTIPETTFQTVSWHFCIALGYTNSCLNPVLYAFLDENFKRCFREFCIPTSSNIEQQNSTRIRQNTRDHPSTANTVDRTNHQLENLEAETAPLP

Delta (δ) opioid receptor, sequence (P41143 whole entry): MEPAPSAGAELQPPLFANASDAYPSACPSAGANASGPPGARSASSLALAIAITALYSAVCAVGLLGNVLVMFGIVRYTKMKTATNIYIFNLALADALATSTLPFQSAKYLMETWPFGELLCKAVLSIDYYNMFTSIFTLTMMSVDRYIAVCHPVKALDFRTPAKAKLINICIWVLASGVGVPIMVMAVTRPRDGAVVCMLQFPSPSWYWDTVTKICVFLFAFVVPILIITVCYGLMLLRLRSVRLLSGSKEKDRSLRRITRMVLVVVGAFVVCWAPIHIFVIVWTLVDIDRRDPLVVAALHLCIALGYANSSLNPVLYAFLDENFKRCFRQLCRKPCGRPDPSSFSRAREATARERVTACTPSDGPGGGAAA
Kappa (κ) opioid receptor, sequence (P41145 whole entry): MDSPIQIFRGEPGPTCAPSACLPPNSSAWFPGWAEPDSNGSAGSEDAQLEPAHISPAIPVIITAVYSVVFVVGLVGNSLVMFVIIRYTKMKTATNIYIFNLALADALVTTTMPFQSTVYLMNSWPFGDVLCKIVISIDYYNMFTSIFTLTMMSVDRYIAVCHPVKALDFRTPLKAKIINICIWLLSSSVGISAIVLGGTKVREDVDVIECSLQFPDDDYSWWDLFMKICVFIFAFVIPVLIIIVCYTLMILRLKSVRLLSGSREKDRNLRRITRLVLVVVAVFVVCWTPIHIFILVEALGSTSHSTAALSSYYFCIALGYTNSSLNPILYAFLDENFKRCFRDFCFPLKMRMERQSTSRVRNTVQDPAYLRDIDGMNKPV

SMILES | Ki [1] [µM] | Ki [2] [µM] | Ki (Mu (μ) opioid receptor) [µM]
Cc1cccc2cccc(CN3CCC4(CC3)C(=O)N(C[C@H]3CNC(=O)O3)CN4c3ccc(F)cc3)c12 [Compound 2, 1-(4-Fluoro-phenyl)-8-(8-methyl-naphthalen-1-ylmethyl)-3-(R)-(2-oxo-oxazolidin-5-ylmethyl)-1,3,8-triaza-spiro[4.5]decan-4-one] | 0.64 | > 5 | 0.74
COCCN1C[C@@H](CN2CN(c3ccc(F)cc3)C3(CCN(Cc4cccc5cccc(C)c45)CC3)C2=O)OC1=O [Compound 5, 1-(4-Fluoro-phenyl)-3-(R)-[3-(2-methoxy-ethyl)-2-oxo-oxazolidin-5-ylmethyl]-8-(8-methyl-naphthalen-1-ylmethyl)-1,3,8-triaza-spiro[4.5]decan-4-one] | 0.58 | > 5 | 0.18
Cc1cccc2cccc(CN3CCC4(CC3)C(=O)N(C[C@H]3CN(C)C(=O)O3)CN4c3ccc(F)cc3)c12 [Compound 4, 1-(4-Fluoro-phenyl)-8-(8-methyl-naphthalen-1-ylmethyl)-3-(S)-(3-methyl-2-oxo-oxazolidin-5-ylmethyl)-1,3,8-triaza-spiro[4.5]decan-4-one] | 0.12 | > 5 | 0.36
